# Laboratory results as given in PubChem BioAssay AID256 (DTP/NCI, 2004).
# Where “and” joins values, the source holds several entries; their conditions need not be identical. Identical values can stand only once. Toxic doses and inconclusive results are not listed.
# System: CD2F1 mice, L1210 leukemia ip, survival T/C
# Assay: NCI In Vivo Anticancer Drug Screen. Data for tumor model L1210 Leukemia (intraperitoneal) in CD2F1 (CDF1) mice
# Details: higher = longer survival
# In short: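 Each value reflects a quotient of treated over vehicle control outcomes in mice with a transplanted tumor.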
# [1] = endpoint: mean survival time, dose: 100.0 mg/kg/injection, schedule: Q01DX001 (ip), vehicle: Klucel (hydroxypropylcellulose) (HPC)
# [2] = endpoint: mean survival time, dose: 200.0 mg/kg/injection, schedule: Q01DX001 (ip), vehicle: Klucel (hydroxypropylcellulose) (HPC)
# [3] = endpoint: mean survival time, dose: 100.0 mg/kg/injection, schedule: Q04DX003 (ip), vehicle: saline with Tween-80
# [4] = endpoint: mean survival time, dose: 200.0 mg/kg/injection, schedule: Q04DX003 (ip), vehicle: saline with Tween-80
# [5] = endpoint: mean survival time, dose: 400.0 mg/kg/injection, schedule: Q04DX003 (ip), vehicle: saline with Tween-80
# [6] = endpoint: mean survival time, dose: 50.0 mg/kg/injection, schedule: Q01DX009 (ip), vehicle: saline with Tween-80
# [7] = endpoint: mean survival time, dose: 100.0 mg/kg/injection, schedule: Q01DX009 (ip), vehicle: saline with Tween-80
# [8] = endpoint: mean survival time, dose: 200.0 mg/kg/injection, schedule: Q01DX009 (ip), vehicle: saline with Tween-80
# [9] = endpoint: mean survival time, dose: 25.0 mg/kg/injection, schedule: Q04DX002 (ip), vehicle: saline with Tween-80
# [10] = endpoint: mean survival time, dose: 50.0 mg/kg/injection, schedule: Q04DX002 (ip), vehicle: saline with Tween-80
# [11] = endpoint: mean survival time, dose: 100.0 mg/kg/injection, schedule: Q04DX002 (ip), vehicle: saline with Tween-80
# [12] = endpoint: mean survival time, dose: 400.0 mg/kg/injection, schedule: Q01DX009 (ip), vehicle: saline with Tween-80
# [13] = endpoint: mean survival time, dose: 12.5 mg/kg/injection, schedule: Q01DX009 (ip), vehicle: saline with Tween-80
# [14] = endpoint: mean survival time, dose: 25.0 mg/kg/injection, schedule: Q01DX009 (ip), vehicle: saline with Tween-80
# [15] = endpoint: mean survival time, dose: 100.0 mg/kg/injection, schedule: Q01DX001 (ip), vehicle: saline
# [16] = endpoint: mean survival time, dose: 200.0 mg/kg/injection, schedule: Q01DX001 (ip), vehicle: saline
# [17] = endpoint: mean survival time, dose: 400.0 mg/kg/injection, schedule: Q01DX001 (ip), vehicle: saline
smiles,measurement,setting,value
C=C(C)CS(=O)(=O)Cc1ccccc1,T/C,"endpoint: mean survival time, dose: 50.0 mg/kg/injection, schedule: Q01DX001 (ip), vehicle: Klucel (hydroxypropylcellulose) (HPC)",96 % of control
same,T/C,[1],102 % of control
same,T/C,[2],102 % of control
O=C(COc1ccc(Cl)cc1Cl)Nc1cc[n+](Cc2ccc(S(=O)(=O)F)cc2)cc1,T/C,[3],98 % of control
same,T/C,[4],98 % of control
same,T/C,[5],95 % of control
CC(C(=O)OC1CCCC2OC12)S(=O)(=O)c1ccccc1 (stereo unspecified),T/C,[6],90 % of control
same,T/C,[7],94 % of control
same,T/C,[8],94 % of control
CC(C)(C)N=C1OC(=O)c2ccccc21,T/C,[3],101 % of control
same,T/C,[4],101 % of control
same,T/C,[5],101 % of control
CCCCCCCCCCCCCCCCCCN1C(=O)C2C3CCC(O3)C2C1=O (stereo unspecified),T/C,[9],98 % of control
same,T/C,[10],98 % of control
same,T/C,[11],94 % of control
Cc1nc2ccccc2c(=O)n1-c1ccccc1Cl,T/C,[7],100 % of control
same,T/C,[3],100 % of control
same,T/C,[8],105 % of control
same,T/C,[4],102 % of control
same,T/C,[12],117 % of control
same,T/C,[5],112 % of control
COc1ccc2c(C)cc(C)nc2n1,T/C,"endpoint: mean survival time, dose: 75.0 mg/kg/injection, schedule: Q01DX001 (ip), vehicle: other",95 % of control
same,T/C,"endpoint: mean survival time, dose: 150.0 mg/kg/injection, schedule: Q01DX001 (ip), vehicle: other",104 % of control
same,T/C,"endpoint: mean survival time, dose: 300.0 mg/kg/injection, schedule: Q01DX001 (ip), vehicle: other",104 % of control
CC(C)N1C(=O)C=C(c2ccc([N+](=O)[O-])cc2)C1=O,T/C,"endpoint: mean survival time, dose: 6.25 mg/kg/injection, schedule: Q01DX009 (ip), vehicle: saline with Tween-80",93 % of control
same,T/C,[13],95 % of control
same,T/C,[14],95 % of control
same,T/C,[6],95 % of control
O=c1nc(-c2ccccc2)c(-c2ccccc2)n[nH]1,T/C,"endpoint: mean survival time, dose: 100.0 mg/kg/injection, schedule: Q04DX003 (ip), vehicle: saline",97 % of control
same,T/C,"endpoint: mean survival time, dose: 200.0 mg/kg/injection, schedule: Q04DX003 (ip), vehicle: saline",94 % of control
O=c1[nH]cc(F)c(=O)n1C1OC(CO)C(O)C1O (stereo unspecified),T/C,"endpoint: mean survival time, dose: 1.0 mg/kg/injection, schedule: Q01DX009 (ip), vehicle: saline",169 % of control
same,T/C,"endpoint: mean survival time, dose: 2.0 mg/kg/injection, schedule: Q01DX005 (ip), vehicle: saline",160 % of control
same,T/C,"endpoint: mean survival time, dose: 2.0 mg/kg/injection, schedule: Q01DX009 (ip), vehicle: saline",160 % of control
same,T/C,"endpoint: mean survival time, dose: 4.0 mg/kg/injection, schedule: Q01DX005 (ip), vehicle: saline",207 % of control
same,T/C,"endpoint: mean survival time, dose: 4.0 mg/kg/injection, schedule: Q01DX009 (ip), vehicle: saline",124 % of control
same,T/C,"endpoint: mean survival time, dose: 5.0 mg/kg/injection, schedule: Q03HX024 (ip), vehicle: saline",155 % of control
same,T/C,"endpoint: mean survival time, dose: 5.0 mg/kg/injection, schedule: Q04DX003 (ip), vehicle: saline",163 % of control
same,T/C,"endpoint: mean survival time, dose: 10.0 mg/kg/injection, schedule: Q03HX024 (ip), vehicle: saline",231 % of control
same,T/C,"endpoint: mean survival time, dose: 10.0 mg/kg/injection, schedule: Q04DX003 (ip), vehicle: saline",189 % of control
same,T/C,"endpoint: mean survival time, dose: 20.0 mg/kg/injection, schedule: Q01DX001 (ip), vehicle: saline",151 % of control
same,T/C,"endpoint: mean survival time, dose: 20.0 mg/kg/injection, schedule: Q03HX024 (ip), vehicle: saline",151 % of control
same,T/C,"endpoint: mean survival time, dose: 20.0 mg/kg/injection, schedule: Q04DX003 (ip), vehicle: saline",184 % of control
O=C1CCCCCN1C(=O)c1ccccc1,T/C,"endpoint: mean survival time, dose: 50.0 mg/kg/injection, schedule: Q01DX009 (ip), vehicle: other",105 % of control
same,T/C,"endpoint: mean survival time, dose: 100.0 mg/kg/injection, schedule: Q01DX009 (ip), vehicle: other",97 % of control
same,T/C,"endpoint: mean survival time, dose: 200.0 mg/kg/injection, schedule: Q01DX009 (ip), vehicle: other",105 % of control
CCOC(=O)CCOc1ccc(Cl)cc1,T/C,[7],95 % of control
same,T/C,[3],89 % of control
same,T/C,[8],97 % of control
same,T/C,[4],93 % of control
same,T/C,[12],104 % of control
same,T/C,[5],91 % of control
Br/C=C(\Br)C[N+]12CN3CN(CN(C3)C1)C2,T/C,[14],107 % of control
same,T/C,[6],105 % of control
same,T/C,[7],104 % of control
O=C1C2C(c3ccccc3)=C(c3ccccc3)C1C1(c3ccccc3)C(c3ccccc3)=CC(=O)C21 (stereo unspecified),T/C,[1],89 % of control
same,T/C,[2],93 % of control
same,T/C,"endpoint: mean survival time, dose: 400.0 mg/kg/injection, schedule: Q01DX001 (ip), vehicle: Klucel (hydroxypropylcellulose) (HPC)",93 % of control
C[n+]1cccc(C(=O)N/N=C/CCc2ccccc2)c1,T/C,[13],92 % of control
same,T/C,[14],93 % of control
same,T/C,[9],100 % of control
same,T/C,[6],97 % of control
same,T/C,[10],95 % of control
same,T/C,[7],97 % of control
same,T/C,[11],101 % of control
same,T/C,"endpoint: mean survival time, dose: 200.0 mg/kg/injection, schedule: Q04DX002 (ip), vehicle: saline with Tween-80",97 % of control
CNC(=O)Oc1cccc(NC(=O)OCCOC)c1,T/C,[3],99 % of control
same,T/C,[4],99 % of control
same,T/C,[5],92 % of control
Cc1ccc(-n2c(O)c(C=N)c(=O)n(-c3ccc(C)cc3)c2=O)cc1,T/C,[3],95 % of control
same,T/C,[4],95 % of control
same,T/C,[5],97 % of control
NCCCCC(N)C(=O)O (stereo unspecified),T/C,"endpoint: median survival time, dose: 3.13 mg/kg/injection, schedule: Q04DX002 (ip), vehicle: saline",100 % of control
same,T/C,"endpoint: median survival time, dose: 6.25 mg/kg/injection, schedule: Q04DX002 (ip), vehicle: saline",94 % of control
same,T/C,"endpoint: median survival time, dose: 25.0 mg/kg/injection, schedule: Q04DX002 (ip), vehicle: saline",105 % of control
same,T/C,"endpoint: median survival time, dose: 50.0 mg/kg/injection, schedule: Q04DX002 (ip), vehicle: saline",117 % of control
O=c1nc(N2CCCC2)ccn1C1OC(CO)C(O)C1O (stereo unspecified),T/C,"endpoint: median survival time, dose: 12.5 mg/kg/injection, schedule: Q01DX005 (ip), vehicle: water",100 % of control
same,T/C,"endpoint: median survival time, dose: 25.0 mg/kg/injection, schedule: Q01DX005 (ip), vehicle: water",101 % of control
same,T/C,"endpoint: median survival time, dose: 50.0 mg/kg/injection, schedule: Q01DX005 (ip), vehicle: water",108 % of control
same,T/C,"endpoint: median survival time, dose: 100.0 mg/kg/injection, schedule: Q01DX005 (ip), vehicle: water",101 % of control
same,T/C,"endpoint: median survival time, dose: 200.0 mg/kg/injection, schedule: Q01DX005 (ip), vehicle: water",104 % of control
O=C1CCCCCCCCCCC1Sc1ccccc1 (stereo unspecified),T/C,[3],91 % of control
same,T/C,[4],100 % of control
same,T/C,[5],91 % of control
O=C(COc1ccc(S[N+](=O)[O-])cc1)c1ccccc1,T/C,[15],105 % of control
same,T/C,[16],103 % of control
same,T/C,[17],94 % of control
O=C(Nc1ccc(C2=NCCN2)cc1)c1ccc(C(=O)Nc2ccc(C3=NCCN3)cc2)c(Cl)c1,T/C,"endpoint: mean survival time, dose: 0.78 mg/kg/injection, schedule: Q01DX009 (ip), vehicle: saline with Tween-80",104 % of control
same,T/C,"endpoint: mean survival time, dose: 1.56 mg/kg/injection, schedule: Q01DX009 (ip), vehicle: saline with Tween-80",104 % of control and 110 % of control and 114 % of control
same,T/C,"endpoint: mean survival time, dose: 2.5 mg/kg/injection, schedule: Q01DX009 (ip), vehicle: saline",110 % of control
same,T/C,"endpoint: mean survival time, dose: 5.0 mg/kg/injection, schedule: Q01DX009 (ip), vehicle: saline",110 % of control
same,T/C,"endpoint: mean survival time, dose: 8.0 mg/kg/injection, schedule: Q01DX008 (iv), vehicle: water",104 % of control
same,T/C,[13],203 % of control
same,T/C,"endpoint: mean survival time, dose: 20.0 mg/kg/injection, schedule: Q01DX009 (ip), vehicle: saline",179 % of control
same,T/C,[14],250 % of control
same,T/C,"endpoint: mean survival time, dose: 40.0 mg/kg/injection, schedule: Q01DX009 (ip), vehicle: saline",234 % of control
same,T/C,[6],86 % of control and 92 % of control
same,T/C,"endpoint: median survival time, dose: 10.0 mg/kg/injection, schedule: Q04DX003 (ip), vehicle: saline with Tween-80",113 % of control
same,T/C,"endpoint: median survival time, dose: 40.0 mg/kg/injection, schedule: Q04DX003 (ip), vehicle: saline with Tween-80",162 % of control
same,T/C,"endpoint: median survival time, dose: 80.0 mg/kg/injection, schedule: Q04DX003 (ip), vehicle: saline with Tween-80",228 % of control
O=C(O)CCC(=O)c1ccc([N+](=O)[O-])cc1,T/C,[15],101 % of control
same,T/C,[16],97 % of control
same,T/C,[17],97 % of control
COC(=O)c1c(F)c(F)c(Nc2c(F)c(F)c(C(=O)OC)c(F)c2F)c(F)c1F,T/C,[3],95 % of control
same,T/C,[4],95 % of control
same,T/C,[5],91 % of control
CCOC(=O)C1CC(C(=O)OCC)C(=O)C1=O (stereo unspecified),T/C,[7],105 % of control
same,T/C,[8],103 % of control
same,T/C,[12],97 % of control
Cc1ccc(C(=O)C(F)F)cc1,T/C,"endpoint: mean survival time, dose: 50.0 mg/kg/injection, schedule: Q01DX001 (ip), vehicle: saline with Tween-80",100 % of control
same,T/C,"endpoint: mean survival time, dose: 100.0 mg/kg/injection, schedule: Q01DX001 (ip), vehicle: saline with Tween-80",101 % of control
same,T/C,"endpoint: mean survival time, dose: 200.0 mg/kg/injection, schedule: Q01DX001 (ip), vehicle: saline with Tween-80",101 % of control
